Laboratory results as given in patent US6468537B1, “Localization of major peptide autoepitopes for nucleosome specific T cells of systemic lupus erythematosus” (The Board of Trustees of Northwestern University, priority 1999, dated 2002).

Tests used:
CD4+ T cell clone DD2 = assay: IL-2 production by lupus Th cell clone DD2 in response to histone peptides; format: cell-based, human; settings: autologous EBV-B cells pulsed with peptide as APC
Method: Short-term T cell lines were rapidly thawed from liquid nitrogen and expanded in the presence of plate-bound anti-CD3 mAb, anti-CD28 mAb, and rIL-2 (20 units per milliliter). The expanded cells were transferred to fresh culture wells and rested by incubating in fresh medium for 10 to 14 days. For stimulation assays, 96 well plates were coated with 2 micrograms per milliliter of goat anti-mouse IgG antibodies overnight at 37° C. After washing the plates twice with Dulbecco's phosphate-buffered saline (dPBS), autologous and previously irradiated (3,000 rad) EBV-B cells (APC) were first added to each well at a concentration of 1×10^5 cells per well. The cells (APC) were cultured together with either a core histone peptide or a control peptide for 6 hours in HL-1 serum free medium (Bio Whittaker, Maryland). This procedure was followed by the addition to each well of CD4^+ T cells from the short-term lines at a concentration of 1×10^5 cells per well, and the addition of 0.5 micrograms per milliliter of a mouse monoclonal antibody (mAb) to human CD28. The final volume of the cultures was 200 microliters per well. Cells were co-cultured for 24 hours at 37° C. One-half the volume of supernatant was collected from each well for ELISA analysis of interleukin levels. Fresh medium (100 microliters) was added to cells, and the cells were incubated an additional 48 hours. [^3H] thymidine was added, and the cultures were incubated an additional 18 hours. Incorporated radioactivity was measured to quantitate T cell proliferation as described previously (Desai-Mehta et al., 1995, J. Clin. Invest. 95:53 1-541). HLA class II dependence of antigen-specific responses by the CD4^+ T cells was determined by adding to the co-cultures a blocking antibody from a panel of mAb to HLA class II molecules, as described previously (Desai-Mehta et al., 1995, J. Clin. Invest. 95:53 1-541). […]
IL-2 secreted by CD4^+ T cells in short term experiments was measured using an ELISA. […]

[1] = system: short-term CD4+ T cell lines; assay: IL-2 production by short-term CD4+ T cell lines in response to histone peptides (pepscan); format: cell-based, human; settings: short-term lines from 10 lupus patients
Method: Short-term T cell lines were rapidly thawed from liquid nitrogen and expanded in the presence of plate-bound anti-CD3 mAb, anti-CD28 mAb, and rIL-2 (20 units per milliliter). The expanded cells were transferred to fresh culture wells and rested by incubating in fresh medium for 10 to 14 days. For stimulation assays, 96 well plates were coated with 2 micrograms per milliliter of goat anti-mouse IgG antibodies overnight at 37° C. After washing the plates twice with Dulbecco's phosphate-buffered saline (dPBS), autologous and previously irradiated (3,000 rad) EBV-B cells (APC) were first added to each well at a concentration of 1×10^5 cells per well. The cells (APC) were cultured together with either a core histone peptide or a control peptide for 6 hours in HL-1 serum free medium (Bio Whittaker, Maryland). This procedure was followed by the addition to each well of CD4^+ T cells from the short-term lines at a concentration of 1×10^5 cells per well, and the addition of 0.5 micrograms per milliliter of a mouse monoclonal antibody (mAb) to human CD28. The final volume of the cultures was 200 microliters per well. Cells were co-cultured for 24 hours at 37° C. One-half the volume of supernatant was collected from each well for ELISA analysis of interleukin levels. Fresh medium (100 microliters) was added to cells, and the cells were incubated an additional 48 hours. [^3H] thymidine was added, and the cultures were incubated an additional 18 hours. Incorporated radioactivity was measured to quantitate T cell proliferation as described previously (Desai-Mehta et al., 1995, J. Clin. Invest. 95:53 1-541). HLA class II dependence of antigen-specific responses by the CD4^+ T cells was determined by adding to the co-cultures a blocking antibody from a panel of mAb to HLA class II molecules, as described previously (Desai-Mehta et al., 1995, J. Clin. Invest. 95:53 1-541).
IL-2 secreted by CD4^+ T cells in short term experiments was measured using an ELISA. Capture and biotinylated antibody pairs directed at human IL-2 and standards for use therein were purchased from PharMingen. […]

For “H383-97: H3 peptide used as additional background control, partly within a stimulatory region in H3 (RFQSSAVMALQEACE; UniProt P68431 84-98, looked up, fragment)”, the “stimulation of DD2” value (CD4+ T cell clone DD2) was “not recognized by any of the T-cell lines or clone DD2” and the “recognition by / response of lupus T cell lines” value [1] was “not recognized by any of the T-cell lines or clone DD2”.
